Test results as given in patent US20220117938A1, “COMBINATON THERAPY WITH A DON PRODRUG AND AN IMMUNE CHECKPOINT INHIBITOR” (DRACEN PHARMACEUTICALS, INC., priority 2019, published 2022).

Key:
CT26.WT tumors = experiment: Anti-tumor efficacy of Compound 1 in the CT26.WT model: schedule comparison (Example 5); assay type: in vivo, mice; conditions: for Mean Tumor Vol / TGI: Day 14; for Mean Tumor Vol / TGI / Cures / ILS: sc
Procedure: Female BALB/c mice were inoculated subcutaneously at right flank with CT26.WT cells for tumor development. Treatment started on day 6 after tumor inoculation when the tumor size reached 40-79 mm^3 (average tumor size 57 mm^3). Each group consisted of 8 tumor-bearing mice. The tumor sizes were measured three times per week during the treatment. The entire study was terminated on D57 after start of the treatment. Otherwise, the experimental methods and procedures are similar to those described in EXAMPLE 2B.

CT26 tumors = experiment: CT26 model, Compound 1 5-day ON 2-day OFF with and without anti-PD-1 (Example 2B, similar experiment, Tables 2B-5/2B-6); assay type: in vivo, mice; conditions: for Cures / Median Survival: 5-day ON 2-day OFF; for Mean Tumor Vol / TGI: Day 15; for BWC: mouse, in vivo
MC-38 tumors = experiment: Anti-tumor efficacy of Compound 1 with and without anti-PD-1 in the subcutaneous MC-38 model (Example 2D); assay type: in vivo, Mus musculus; conditions: for MST: endpoint tumor volume 2000 mm^3; for T/C / TGI: day 16
Procedure: Female C57BL/6 mice were inoculated subcutaneously at right flank with MC-38 cells for tumor development. Five days after tumor inoculation, 48 mice with tumor size ranging from 50-100 mm^3 (average tumor size 72 mm^3) were selected and assigned into six groups using stratified randomization with 8 mice per group based upon their tumor volumes. The treatments were started from the day of randomization (defined as D0), Group 1 was treated with Vehicle (Tween 80:Ethanol:Saline—5:5:90 v/v/v), s.c., qd×14, Group 2 was treated with Anti-PD-1 10 mg/kg i.p. q4d×4, Group 3 was treated with Compound 1 0.3 mg/kg s.c. q.d.×14, Group 4 was treated with Compound 1 0.3 mg/kg s.c. q.d.×14+Anti-PD-1 10 mg/kg i.p. q4d×4, Group 5 was treated with Compound 1 1 mg/kg s.c. q.d.×14, Group 6 was treated with Compound 1 1 mg/kg s.c. q.d.×14+Anti-PD-1 10 mg/kg i.p. q4d×4. The tumor sizes were measured three times per week during the treatment. The entire study was terminated on D37 after start of the treatment.
Animal Species: Mus musculus; Strain: […]; Age: 6-8 weeks; Sex: female; Body weight (at treatment start): 18-22 g.
The MC-38 tumor cells were maintained in vitro as a monolayer culture in DMEM medium supplemented with 10% heat inactivated fetal bovine serum and 100 μg/mL penicillin streptomycin at 37° C. in an atmosphere of 5% CO2 in air. The tumor cells were routinely subcultured twice weekly by trypsin-EDTA treatment. The cells growing to a confluency around 70%-80% were harvested and counted for tumor inoculation. The cultured MC-38 were harvested, re-suspended in base medium at a density of 1×10^7 cells/mL with viability >90%. Each mouse was inoculated subcutaneously at the right flank with 1×10^6 cells in 0.1 ml base medium for tumor development.
The treatments were started on day 5 after tumor inoculation when the tumor size reached 50-100 mm^3 (average tumor size 72 mm^3). Each group consisted of 8 tumor bearing mice.
The testing article was administrated at the dosing volume indicated to the mice according to the predetermined regimen as shown Table 2D-1. Testing article formulations were prepared according to standard procedures. Details regarding tumor measurements and endpoints, and statistical analysis are provided in EXAMPLE 3.
Tumor sizes were measured three times a week in two dimensions using a caliper, and the volume expressed in mm^3 using the formula: V=0.5 a×b^2 where a and b are the long and short diameters of the tumor, respectively. The tumor sizes were then used for the calculations of both tumor growth inhibition (TGI) and T/C values.
TGI is calculated for each group using the formula: […]
TVTreatment_DayN is the average tumor volume of a treatment group on a given day, TVTreatment_Day0 is the average tumor volume of the treatment group on the first day of treatment, TVVehicle_DayN is the average tumor volume of the vehicle control group on a given day, and TVVehicle_Day0 is the average tumor volume of the vehicle group on the first day of treatment.
The T/C value (in percent) is an indication of antitumor effectiveness, T/C (%)=RTVTreatment/RTVControl×100% (RTVTreatment: the mean RTV of the treatment group; RTVControl: the mean RTV of the vehicle treated group). RTV (relative tumor volume)=TVDayN/TVDay0. TVDayN and TVDay0 is the tumor volume on day N and Day 0 respectively. T/C (%)≤42% is considered as significant antitumor activity and <10% is considered as highly significant antitumor activity by the National Cancer Institute criteria.
Animal survival curve: When an individual animal reached to the termination endpoint (TV>2000 mm^3), the mouse was euthanized. The time from treatment initiation to the termination was deemed as its survival time. Survival curve was plotted by Kaplan-Meier method. Median survival time (MST) was calculated for each group. Increase of life span (ILS) was calculated according to the following formula: […]
ILS (%)>25% is considered as a biologically significant survival benefit. […]

[1] = Group 2: 1.4 mpk 5-days ON 2-days OFF x4 cycles
[2] = Group 3: 1.4 mpk 5-days ON 2-days OFF x2 cycles followed by 3-days ON (Mon-Wed) 4-days OFF x2 cycles
[3] = Group 4: 1.4 mpk 5-days ON 2-days OFF x2 cycles followed by 3-days ON (Mon, Wed, Fri) 4-days OFF x2 cycles
[4] = Group 5: 2.33 mpk 3-days ON (Mon-Wed) 4-days OFF x4 cycles
[5] = Group 6: 2.33 mpk 3-days ON (Mon, Wed, Fri) 4-days OFF x4 cycles
[6] = Group 7: 0.5 mpk 5-days ON 2-days OFF x4 cycles
[7] = Group 8: 0.83 mpk 3-days ON (Mon-Wed) 4-days OFF x4 cycles
[8] = Group 9: 0.83 mpk 3-days ON (Mon, Wed, Fri) 4-days OFF x4 cycles
[9] = 0.15 mg/kg 5-day ON 2-day OFF x 4 cycles
[10] = 0.5 mg/kg 5-day ON 2-day OFF x 4 cycles
[11] = 1.4 mg/kg 5-day ON 2-day OFF x 4 cycles
[12] = Compound 1 0.3 mg/kg qd x 14, s.c.

CC(=O)N[C@@H](Cc1c[nH]c2ccccc12)C(=O)N[C@@H](CCC(=O)C=[N+]=[N-])C(=O)OC(C)C [Compound 1, Isopropyl (S)-2-((S)-2-acetamido-3-(1H-indol-3-yl)propanamido)-6-diazo-5-oxohexanoate]
ILS (maximum median survival) (CT26.WT tumors; 1.4 mg/kg 5-day ON 2-day OFF): 106% | Long term cure (CT26.WT tumors; 1.4 mg/kg 5-day ON 2-day OFF, animals cured/animals in group): 1/8 | Tumor growth inhibition, schedule switch compared to 1.4 mg/kg 5-day ON 2-day OFF×4 cycles (CT26.WT tumors; 1.4 mg/kg, switching from 5-day ON 2-day OFF to 3-day ON 4-day OFF on Day 14): reduced tumor growth inhibition | Efficacy and survival benefit, Mon-Wed compared with Mon, Wed, Fri dosing (CT26.WT tumors; 3-day ON 4-day OFF schedules, equivalent total dose per cycle): equivalent efficacy and survival benefit | Tumor growth inhibition and survival benefit compared to 3-day ON 4-day OFF schedules (CT26.WT tumors; 5-day ON 2-day OFF schedule, equivalent total dose per cycle, 4 weeks): superior tumor growth inhibition and survival benefit | Mean Tumor Vol (CT26.WT tumors; [1]): 163 ± 25 mm^3 | TGI (CT26.WT tumors; [1]): 92% | Mean Tumor Vol (CT26.WT tumors; [2]): 155 ± 27 mm^3 | TGI (CT26.WT tumors; [2]): 93% | Mean Tumor Vol (CT26.WT tumors; [3]): 164 ± 12 mm^3 | TGI (CT26.WT tumors; [3]): 92% | Mean Tumor Vol (CT26.WT tumors; [4]): 169 ± 32 mm^3 | TGI (CT26.WT tumors; [4]): 92% | Mean Tumor Vol (CT26.WT tumors; [5]): 240 ± 45 mm^3 | TGI (CT26.WT tumors; [5]): 87% | Mean Tumor Vol (CT26.WT tumors; [6]): 302 ± 41 mm^3 | TGI (CT26.WT tumors; [6]): 82% | Mean Tumor Vol (CT26.WT tumors; [7]): 484 ± 87 mm^3 | TGI (CT26.WT tumors; [7]): 69% | Mean Tumor Vol (CT26.WT tumors; [8]): 488 ± 74 mm^3 | TGI (CT26.WT tumors; [8]): 68% | Cures (CT26.WT tumors; [1]): 12.5% | ILS (CT26.WT tumors; [1]): 106% | Cures (CT26.WT tumors; [2]): 0% | ILS (CT26.WT tumors; [2]): 67% | Cures (CT26.WT tumors; [3]): 12.5% | ILS (CT26.WT tumors; [3]): 94% | Cures (CT26.WT tumors; [4]): 0% | ILS (CT26.WT tumors; [4]): 86% | Cures (CT26.WT tumors; [5]): 0% | ILS (CT26.WT tumors; [5]): 94% | Cures (CT26.WT tumors; [6]): 0% | ILS (CT26.WT tumors; [6]): 67% | Cures (CT26.WT tumors; [7]): 0% | ILS (CT26.WT tumors; [7]): 67% | Cures (CT26.WT tumors; [8]): 0% | ILS (CT26.WT tumors; [8]): 39% | Cures (CT26 tumors; Compound 1 0.15 mg/kg): 0% | Median Survival (CT26 tumors; Compound 1 0.15 mg/kg): 26 days | Cures (CT26 tumors; Compound 1 0.5 mg/kg): 0% | Median Survival (CT26 tumors; Compound 1 0.5 mg/kg): 36 days | Cures (CT26 tumors; Compound 1 1.4 mg/kg): 0% | Median Survival (CT26 tumors; Compound 1 1.4 mg/kg): 37 days | Mean Tumor Vol (CT26 tumors; [9]): 188 ± 29 mm^3 | TGI (CT26 tumors; [9]): 76% | Mean Tumor Vol (CT26 tumors; [10]): 150 ± 21 mm^3 | TGI (CT26 tumors; [10]): 88% | Mean Tumor Vol (CT26 tumors; [11]): 106 ± 16 mm^3 | TGI (CT26 tumors; [11]): 91% | BWC (CT26 tumors; 0.15 mg/kg): 7% | BWC (CT26 tumors; 0.5 mg/kg): 1.4% | BWC (CT26 tumors; 1.4 mg/kg): −11% | ILS (MC-38 tumors; [12]): 52.6% | MST (MC-38 tumors; [12]): 29 days | ILS (MC-38 tumors; Compound 1 1 mg/kg qd x 14, sc): 65.8% | MST (MC-38 tumors; Compound 1 1 mg/kg qd x 14, sc): 31.5 days | RTV at day 16 (MC-38 tumors; Cpd. 1 0.3 mg/kg qd x 14, s.c.): 2.73 ± 0.37 | RTV at day 16 (MC-38 tumors; Cpd. 1 1 mg/kg qd x 14, sc): 0.40 ± 0.11 | T/C (MC-38 tumors; Cpd. 1 0.3 mg/kg qd x 14, s.c.): 14.06% | TGI (MC-38 tumors; Cpd. 1 0.3 mg/kg qd x 14, s.c.): 90.53% | T/C (MC-38 tumors; Cpd. 1 1 mg/kg qd x 14, sc): 2.08% | TGI (MC-38 tumors; Cpd. 1 1 mg/kg qd x 14, sc): 103.26%
